Substitutions are numbered along the chain they refer to.
Columns and labels:
αQ101K mutant hENaC = target: T1, αQ101K mutant hENaC (Homo sapiens, UniProt P37088+P51168+P51170, Q101K); assay: Whole-cell patch clamp, amiloride-sensitive Na+ current, αQ101K ENaC; assay type: cell-based; settings: αQ101K activated by solnatide; 10 μM amiloride
T1 construct: expressed in transfected cells
T1 sequence (P37088 1-669 Q101K): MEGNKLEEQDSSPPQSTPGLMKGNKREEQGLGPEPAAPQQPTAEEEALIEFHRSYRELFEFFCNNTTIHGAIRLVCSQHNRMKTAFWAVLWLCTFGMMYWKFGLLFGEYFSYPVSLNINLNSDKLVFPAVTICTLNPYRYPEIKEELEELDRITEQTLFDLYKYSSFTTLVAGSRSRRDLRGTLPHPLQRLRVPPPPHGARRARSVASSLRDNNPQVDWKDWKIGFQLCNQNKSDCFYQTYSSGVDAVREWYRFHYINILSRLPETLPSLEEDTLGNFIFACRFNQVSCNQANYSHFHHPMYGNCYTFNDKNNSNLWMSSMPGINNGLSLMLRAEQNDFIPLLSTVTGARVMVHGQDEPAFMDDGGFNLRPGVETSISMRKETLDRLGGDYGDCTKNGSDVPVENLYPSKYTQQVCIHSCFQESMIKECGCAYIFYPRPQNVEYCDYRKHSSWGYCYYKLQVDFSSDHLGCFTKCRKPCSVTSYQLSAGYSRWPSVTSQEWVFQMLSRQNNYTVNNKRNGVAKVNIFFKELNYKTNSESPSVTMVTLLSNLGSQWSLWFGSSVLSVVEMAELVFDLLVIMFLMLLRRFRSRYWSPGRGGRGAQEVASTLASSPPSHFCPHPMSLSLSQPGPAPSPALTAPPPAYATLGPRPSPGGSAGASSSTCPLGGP
T1 sequence (P51168 1-640): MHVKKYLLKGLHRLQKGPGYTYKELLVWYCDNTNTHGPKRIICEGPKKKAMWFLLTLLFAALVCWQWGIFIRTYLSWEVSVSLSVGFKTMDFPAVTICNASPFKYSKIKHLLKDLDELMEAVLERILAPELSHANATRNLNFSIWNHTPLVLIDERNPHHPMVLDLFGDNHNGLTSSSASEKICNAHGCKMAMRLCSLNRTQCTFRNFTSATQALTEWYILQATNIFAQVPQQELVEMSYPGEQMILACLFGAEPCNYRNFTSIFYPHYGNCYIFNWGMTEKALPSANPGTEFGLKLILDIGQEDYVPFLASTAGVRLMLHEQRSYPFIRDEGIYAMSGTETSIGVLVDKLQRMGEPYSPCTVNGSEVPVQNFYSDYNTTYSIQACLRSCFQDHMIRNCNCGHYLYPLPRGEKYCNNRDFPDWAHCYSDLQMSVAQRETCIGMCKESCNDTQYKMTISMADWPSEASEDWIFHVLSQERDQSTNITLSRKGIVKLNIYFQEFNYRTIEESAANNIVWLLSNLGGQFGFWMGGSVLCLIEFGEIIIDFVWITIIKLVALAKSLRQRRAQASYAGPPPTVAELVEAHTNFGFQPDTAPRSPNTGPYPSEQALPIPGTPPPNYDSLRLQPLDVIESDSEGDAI
T1 sequence (P51170 1-649): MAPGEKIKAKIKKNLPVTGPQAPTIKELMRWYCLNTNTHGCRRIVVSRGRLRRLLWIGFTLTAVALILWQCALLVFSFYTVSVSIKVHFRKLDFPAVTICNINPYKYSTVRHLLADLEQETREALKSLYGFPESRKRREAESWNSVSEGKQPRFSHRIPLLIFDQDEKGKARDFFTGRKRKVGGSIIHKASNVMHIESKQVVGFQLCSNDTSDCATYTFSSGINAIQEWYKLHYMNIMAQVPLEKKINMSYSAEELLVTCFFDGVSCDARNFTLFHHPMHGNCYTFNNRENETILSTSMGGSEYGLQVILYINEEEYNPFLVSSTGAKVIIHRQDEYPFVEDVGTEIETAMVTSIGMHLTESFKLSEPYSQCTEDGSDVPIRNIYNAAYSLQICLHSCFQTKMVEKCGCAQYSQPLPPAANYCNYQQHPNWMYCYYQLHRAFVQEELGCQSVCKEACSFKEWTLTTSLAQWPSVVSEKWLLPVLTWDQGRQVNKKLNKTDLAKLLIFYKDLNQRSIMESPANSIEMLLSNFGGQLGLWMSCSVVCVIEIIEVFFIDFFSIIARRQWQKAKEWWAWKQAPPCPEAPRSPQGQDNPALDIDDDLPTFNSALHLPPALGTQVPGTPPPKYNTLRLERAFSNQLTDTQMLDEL
Procedure: (§1) Human embryonic kidney HEK-293 cells (ATCC no. CRL-1573) in passages 3–25, were seeded in Dulbecco's modified Eagle medium/F12 nutrient mixture Ham plus L-glutamine (DMEM/F-12; Gibco™ by Life Technologies, LifeTech Austria), supplemented with 10% fetal bovine serum (FBS; Gibco™ by Life Technologies, LifeTech Austria) and 1% penicillin-streptomycin (Sigma-Aldrich, Vienna, Austria). Cells were maintained at 37°C with 5% CO2 in a humidified incubator.
(§2) Point mutations and single base (insertions or) deletions, causing a frameshift, were introduced into cDNA encoding α-, β-, or γ-hENaC using QuikChange Lightning Site-Directed Mutagenesis Kit (Agilent Technologies, CA, USA). Pairs of mutagenic primers were designed individually with the Primer Design Program provided on the producer's website. The same bases were changed as reported in patients or at least resulting in the same protein products. The designed primers were ordered after checking their properties using the DNA Oligos Design Tool from Sigma-Aldrich, Vienna, Austria (Table 1).
(§3) HEK-293 cells were transfected 1 day after cell seeding using X-tremeGENE HP DNA transfection reagent (Roche Diagnostics, Mannheim, Germany) according to the manufacturer's protocol. […]

αG327C mutant hENaC = target: T2, αG327C mutant hENaC (Homo sapiens, UniProt P37088+P51168+P51170, G327C); assay: Whole-cell patch clamp, amiloride-sensitive Na+ current, αG327C ENaC; assay type: cell-based; settings: αG327C activated by AP318; 10 μM amiloride
T2 construct: expressed in transfected cells
T2 sequence (P37088 1-669 G327C): T1 sequence (P37088 1-669 Q101K) with K101Q, G327C
T2 sequence (P51168 1-640): T1 sequence (P51168 1-640)
T2 sequence (P51170 1-649): T1 sequence (P51170 1-649)
Procedure: as §1, §2, §3

[1] = test system: mock-transfected HEK-293 cells; assay: Whole-cell current of mock-transfected cells; assay type: cell-based, human
Procedure: Whole-cell currents were recorded from transfected HEK-293 cells with an Axopatch 200B amplifier, DigiData 1440A and pCLAMP10.2 software (Axon Instruments, Union City, CA) at room temperature (19–22°C) 48–72 h after transfection. Currents were recorded at 10 kHz and filtered at 5 kHz. The chamber contained 1 ml bath solution of the following composition (in mM): 145 NaCl, 2.7 KCl, 1.8 CaCl2, 2 MgCl2, 5.5 glucose, and 10 HEPES, adjusted to pH 7.4 with 1 M NaOH solution. The borosilicate glass patch pipettes (Harvard Apparatus, Holliston, MA) had resistances of 2–4 MΩ. The pipette solution contained (in mM): 135 potassium methane sulphonate, 10 KCl, 6 NaCl, 1Mg2ATP, 2 Na3ATP, 10 HEPES, and 0.5 EGTA, adjusted to pH 7.2 with 1 M KOH solution. Data acquisition and storage were processed directly to a PC. […] Differences were evaluated by one-way ANOVA followed by Tukey's post-hoc test.

[2] = target: human ENaC with the frameshift γV543fs (γ subunit of 597 residues, abnormal sequence after S542), co-expressed with WT α and β subunits (human) (UniProt P37088)

| EC50 of the increase of amiloride-sensitive Na+ current, whole-cell patch clamp at -100 mV, transfected HEK-293 cells, peptide 2-200 nM [2] | Molecule | block of peptide-induced activation (αQ101K mutant hENaC) | block of peptide-induced activation (αG327C mutant hENaC) | amiloride-sensitive or peptide-induced current ([1]; 10 μM amiloride or 200 nM peptide) | whole-cell current ([1]; 10 μM amiloride, control 11.28 ± 5.68 pA) |
| --- | --- | --- | --- | --- | --- |
|  | N=C(N)NC(=O)c1nc(Cl)c(N)nc1N [amiloride] | can be blocked by 10 μM amiloride | can be blocked by 10 μM amiloride | about zero | 10.47 ± 6.23 pA |
| 47.7 nM | AP318 (peptide) |  |  |  |  |

— PMC5323398, “Restoration of Epithelial Sodium Channel Function by Synthetic Peptides in Pseudohypoaldosteronism Type 1B Mutants” (Frontiers in Pharmacology, 2017)
